Experimental data reported in PubChem BioAssay (NCI).
“And” between values parts separate entries of the source, which are not always exact repeats. Equal entries are not always repeated.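 These data come from cells grown in 96-well plates and exposed to compound for 48 hours at five concentrations. Abbreviation: GI50, concentration required for 50% inhibition of growth. TGI marks complete inhibition of growth.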 *1 amine or outer side, *2 acyl side, *3 side chain or, on linkers, in order; H or OH if unused. Where a SMILES comes first, the peptide text is derived from it. Bridges are numbered along the chain shown (N, C = ends). Roman numbers before positions name the chains, in order. [ ]: non-standard residue; d: D form. Actinocin(9to1) = Cc1c2oc3c(C)ccc(C(=O)[*:1])c3nc-2c(C(=O)[*:2])c(N)c1=O; NMeF = CN[CH](Cc1ccccc1)C(=O)O; Sar = CNCC(=O)O

Tests used:
Experiment in all cases: DTP human tumour cell line panel, 48 h
OVCAR-8 ovarian = tested on: OVCAR-8 ovarian
COLO 205 colon = tested on: COLO 205 colon
NCI/ADR-RES ovarian = tested on: NCI/ADR-RES ovarian
TK-10 renal = tested on: TK-10 renal
DU-145 prostate = tested on: DU-145 prostate
SF-295 CNS = tested on: SF-295 CNS
NCI-H522 lung = tested on: NCI-H522 lung
CAKI-1 renal = tested on: CAKI-1 renal

Structure (SMILES)	GI50 (OVCAR-8 ovarian)	TGI (OVCAR-8 ovarian)	GI50 (COLO 205 colon)	TGI (COLO 205 colon)	GI50 (NCI/ADR-RES ovarian)	TGI (NCI/ADR-RES ovarian)	GI50 (TK-10 renal)	TGI (TK-10 renal)	GI50 (DU-145 prostate)	TGI (DU-145 prostate)	GI50 (SF-295 CNS)	TGI (SF-295 CNS)	GI50 (NCI-H522 lung)	TGI (NCI-H522 lung)	GI50 (CAKI-1 renal)	TGI (CAKI-1 renal)
CCSc1ccc(C2C(Br)C(=O)N2c2cc(OC)c(OC)c(OC)c2)cc1 (stereo not drawn)	0.403 µM	51.8 µM	0.23 µM	0.823 µM	0.125 µM	> 100 µM	14.3 µM	33.4 µM	0.349 µM	> 100 µM	0.087 µM	> 100 µM	0.158 µM	4.19 µM		
N#CC1C=Cc2c(ccc3ccccc23)N1C(=O)c1ccccc1 (stereo not drawn)	0.461 µM	> 100 µM	0.251 µM	0.706 µM	0.187 µM		3.78 µM	> 65.8 µM	0.26 µM	1.97 µM	0.0268 µM	0.0747 µM	0.0274 µM	0.0924 µM	0.108 µM	
Nc1ncc(-c2cccc(S(N)(=O)=O)c2)c2scc(-c3ccc(F)c(Cl)c3)c12	6.38 µM	> 22.6 µM	5.92 µM	11.8 µM	7.14 µM	> 25 µM	6.58 µM	16.4 µM	5.55 µM	15.3 µM	5.66 µM	13.8 µM	3.74 µM	7.74 µM	5.51 µM	21.4 µM
C=CC(COC(c1ccccc1)(c1ccccc1)c1ccccc1)N(CC)CC (stereo not drawn)	5.87 µM	20.1 µM	1.7 µM	3.4 µM	3.88 µM	18.2 µM	3.19 µM	10.8 µM	6.54 µM	20.2 µM	1.74 µM	3.78 µM	4.18 µM	15.2 µM	2.43 µM	11.8 µM
Cc1coc2c1C(OC(=O)C(C)C)C1(C)C(C)CCC(O)C1C2=O (stereo not drawn)		> 100 µM		> 100 µM		> 100 µM		> 100 µM		> 100 µM		> 100 µM		> 100 µM		> 100 µM
Cc1c2oc3c(C)ccc(C(=O)NC4C(=O)NC(C(C)C)C(=O)N5CCCC5C(=O)N(C)CC(=O)N(C)C(Cc5ccccc5)C(=O)OC4C)c3nc-2c(C(=O)NC2C(=O)NC(C(C)C)C(=O)N3CCCC3C(=O)N(C)CC(=O)N(C)C(Cc3ccccc3)C(=O)OC2C)c(N)c1=O (stereo not drawn) (I: TVP[Sar][NMeF] / II: TVP[Sar][NMeF]; ester I:1-I:C, II:1-II:C; linker I:N-II:N via Actinocin(9to1); configuration not given here)		0.132 µM and 0.054 µM	0.00372 µM	0.0266 µM		> 1 µM	< 0.01 µM and 0.049 µM	> 1 µM		< 0.01 µM and 0.0698 µM		< 0.0141 µM and 0.108 µM	0.00155 µM	0.0201 µM		2.79 µM and > 0.223 µM
Nc1c(C(=O)Nc2cccc(Cl)c2Cl)sc2nc3c(cc12)C(=O)CCC3	> 100 µM	> 100 µM	1.61 µM	> 100 µM	> 100 µM	> 100 µM	> 100 µM	> 100 µM	> 100 µM	> 100 µM	0.476 µM	> 100 µM	> 100 µM	> 100 µM	> 100 µM	> 100 µM
COc1cccc2c1n([O-])c1cccc(OC)c1[n+]2=O	4.51 µM	35.8 µM	12.1 µM	28.5 µM	3.81 µM	22.7 µM	24.3 µM	> 100 µM	7.97 µM	> 100 µM	3.03 µM	18.5 µM	5.77 µM	28.1 µM	3.97 µM	76.5 µM
NC(=S)NN=C1CSSC1	2.94 µM	23.4 µM	2.4 µM	5.67 µM	4.11 µM	> 100 µM	2.73 µM	7.62 µM	4.12 µM	16.2 µM			2.95 µM	15.4 µM	3.61 µM	40.3 µM
COc1ccccc1C(=O)N(C)c1ccc(Cl)c(C(=O)OC(C)C)c1		> 100 µM		> 100 µM		> 100 µM		> 100 µM		> 100 µM		94.5 µM		> 100 µM		> 100 µM
Cn1cc(C2=C(N3CCOCC3)C(=O)NC2=O)c2ccccc21	> 25 µM	> 25 µM	> 25 µM	> 25 µM	> 25 µM	> 25 µM	> 25 µM	> 25 µM	> 25 µM	> 25 µM	> 25 µM	> 25 µM	> 25 µM	> 25 µM	> 25 µM	> 25 µM
CC(=O)[O-].O=C([CH-]C(=O)c1ccccc1)c1ccccc1.O=C([CH-]C(=O)c1ccccc1)c1ccccc1.[Sm+3]	2.13 µM	16.3 µM	7.89 µM	22.8 µM			6.41 µM	48.7 µM			2.66 µM	17.2 µM	1.43 µM	7.49 µM	3.57 µM	15.9 µM
O=C1C(Cl)=C(Nc2cccc(O)c2)C(=O)N1Cc1ccc(Cl)cc1Cl	1.94 µM	27.1 µM	3.11 µM	30.2 µM	2 µM	26.6 µM	13.6 µM	28.4 µM	11.3 µM	24.2 µM	11.3 µM	25.1 µM	1.43 µM	9.95 µM	13.4 µM	26.7 µM
COc1cc(NC(=O)C2=C(N3CCOCC3)/C(=C/c3ccc(Cl)cc3)CC2)cc(OC)c1OC	19.5 µM	> 100 µM	> 100 µM	> 100 µM	42.5 µM	> 100 µM	27.9 µM	86.5 µM	> 100 µM	> 100 µM	7.09 µM	40.7 µM	17.2 µM	> 100 µM	23 µM	> 100 µM
Cc1cc(C(=O)c2ccccc2)c(C)c2c1[nH]c1ccc(Cl)cc12	0.148 µM	> 100 µM	0.102 µM	1.36 µM	0.0485 µM	> 100 µM	3.11 µM	31.3 µM	0.112 µM	> 42.1 µM	0.0294 µM	0.363 µM	0.0267 µM	4.9 µM	0.0521 µM	6.05 µM
Cc1ccc(-c2cc(O)c(-c3ccc(C)cc3C)cc2O)c(C)c1	4.04 µM	22.2 µM	10.2 µM	24.6 µM	4.5 µM	32.9 µM	11.7 µM	42.2 µM	11.2 µM	28.2 µM	6.96 µM	36.1 µM	4.67 µM	16.3 µM	3.41 µM	34.3 µM
O=C(CCc1ccc(O)cc1)N/N=C/c1cc(Br)ccc1O	3.7 µM	> 100 µM	14 µM	> 100 µM	2.34 µM	> 100 µM	7.35 µM	> 100 µM	3.4 µM	> 100 µM	3.25 µM	> 100 µM	3.73 µM	18.1 µM	1.95 µM	8.99 µM
CC(C)(C)c1ccc(NS(=O)(=O)c2ccc3nc(NC(=O)c4cnccn4)[nH]c3c2)cc1	5.78 µM	38.8 µM	4.1 µM	20.9 µM	1.92 µM	8.59 µM	8.84 µM	23.4 µM	3.17 µM	11.5 µM	0.743 µM	5.09 µM	1.64 µM	13.6 µM	4.64 µM	17.5 µM
COc1cc2c3c(n(C)c(=O)c2cc1OC)-c1cc2c(cc1/C3=C\CCNCCCN)OCO2	2.98 µM	44.6 µM	0.487 µM	15.4 µM	> 100 µM	> 100 µM	5.29 µM	22.4 µM					1.67 µM	25.5 µM	3.44 µM	14.3 µM
CC[C@H](C)C(=O)O[C@H]1C[C@H](O)C=C2C=C[C@H](C)[C@H](CC[C@@H](O)C[C@@H](O)CC(=O)O)[C@H]21	> 100 µM	> 100 µM	> 100 µM	> 100 µM	> 100 µM	> 100 µM	> 100 µM	> 100 µM	> 100 µM	> 100 µM	> 100 µM	> 100 µM	63 µM	> 100 µM	> 100 µM	> 100 µM
O=[N+]([O-])c1cccc2nccc(NCCCO)c12		37.3 µM		15.8 µM				52.3 µM		35.3 µM		32 µM		20 µM		35.4 µM
COc1cc(-c2csc(NC(=O)Nc3cc(Cl)cc(Cl)c3)n2)cc(OC)c1OC	1.84 µM	3.87 µM	3.11 µM	11.4 µM	1.85 µM	3.94 µM	1.73 µM	3.16 µM	1.77 µM	3.35 µM	1.55 µM	3.01 µM	2.05 µM	7.09 µM		
CCCCCn1c(C)cc(/C=C\c2ccc3cc(C)ccc3[n+]2C)c1C					2.11 µM	> 34.4 µM	0.157 µM	0.89 µM	0.0586 µM	1.3 µM	0.0982 µM	0.595 µM			0.164 µM	0.675 µM
O=C(O)/C(=C\c1ccncc1)c1cccc2ccccc12		> 100 µM		> 100 µM		> 100 µM		> 100 µM		> 100 µM		> 100 µM		> 100 µM		
